In the supplement of paper PMC8671470:

Experiments:
Conditions in all cases: 72 h
[1] = test system: HEL
Summary of the method: (§1)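 For the IC50, dose–response curves were fitted with a log-logistic model. The data came from fifteen myeloid leukaemia cell lines grown in RPMI 1640 at densities in the linear growth range and incubated in 384-well plates for 72 h at 37 °C under 5% CO2. Doses were five tenfold steps from 1 to 10,000 nM in duplicate, and luminescent ATP viability was normalised to vehicle and to a positive control at 10 µM before four-parameter fitting.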

[2] = test system: THP-1
Summary of the method: as §1

[3] = test system: Mono-Mac-6
Summary of the method: as §1

[4] = test system: KU-812
Summary of the method: as §1

[5] = test system: KCL-22
Summary of the method: as §1

[6] = test system: ML-2
Summary of the method: as §1

[7] = test system: BV-173
Summary of the method: as §1

[8] = test system: MV4-11
Summary of the method: as §1

[9] = test system: HL-60
Summary of the method: as §1

[10] = test system: MOLM-13
Summary of the method: as §1

[11] = test system: K-562
Summary of the method: as §1

[12] = test system: SHI-1
Summary of the method: as §1

[13] = test system: KG-1
Summary of the method: as §1

[14] = test system: LAMA-84
Summary of the method: as §1

SMILES | IC50 (cell viability) [1] [µM] | IC50 (cell viability) [2] [µM] | IC50 (cell viability) [3] [µM] | IC50 (cell viability) [4] [µM] | IC50 (cell viability) [5] [µM] | IC50 (cell viability) [6] [µM] | IC50 (cell viability) [7] [µM] | IC50 (cell viability) [8] [µM] | IC50 (cell viability) [9] [µM] | IC50 (cell viability) [10] [µM] | IC50 (cell viability) [11] [µM] | IC50 (cell viability) [12] [µM] | IC50 (cell viability) [13] [µM] | IC50 (cell viability) [14] [µM]
CC(C)(CCCCCCCCCCC(C)(C)CC(=O)O)CC(=O)O [MEDICA 16] | > 10 | > 10 | > 10 | > 10 | > 10 | > 10 | > 10 | > 10 | > 10 | > 10 | > 10 | > 10 | > 10 | > 10
OC[C@H]1N[C@@H](c2c[nH]c3c(O)ncnc23)[C@H](O)[C@@H]1O [Forodesine] | > 10 | > 10 | > 10 | > 10 | > 10 | > 10 | > 10 | > 10 | > 10 | > 10 | > 10 | > 10 | > 10 | > 10
CCCCCCCNC=O [N-Heptyl-Formamide] | > 10 | > 10 | > 10 | > 10 | > 10 | > 10 | > 10 | > 10 | > 10 | > 10 | > 10 | > 10 | > 10 | > 10
N=C(N)c1ccc(N=NNc2ccc(C(=N)N)cc2)cc1 [Diminazene] | > 10 | > 10 | > 10 | > 10 | > 10 | > 10 | > 10 | > 10 | > 10 | > 10 | > 10 | > 10 | > 10 | > 10
O=[As]O[As]=O (configuration not stated) [Arsenic trioxide] | > 10 | > 10 | 8.74 | > 10 | > 10 | > 10 | 4.7 | 4.27 | 8.69 | 4.97 | > 10 | 9.09 | > 10 | 7.24
OCC(CO)N[C@H]1C[C@](O)(CO)[C@@H](O)[C@H](O)[C@H]1O [Voglibose] | > 10 | > 10 | > 10 | > 10 | > 10 | > 10 | > 10 | 6.47 | > 10 | > 10 | > 10 | > 10 | > 10 | > 10
CN(C)C(=O)n1nnnc1Cc1ccc(-c2ccccc2)cc1 | 2.41 | 1.74 | 2.48 | 1.89 | 2.92 | 1.5 | 0.422 | 1.77 | 3.63 | 3.38 | 1.88 | 3.74 | 1.17 | 2.45
O=C(C(=O)c1ccc(Br)cc1)c1ccc(Br)cc1 [4,4'-Dibromobenzil] | > 10 | > 10 | > 10 | > 10 | > 10 | > 10 | > 10 | > 10 | > 10 | > 10 | > 10 | > 10 | > 10 | > 10
COc1cc(C2Oc3cc(C4Oc5cc(O)cc(O)c5C(=O)C4O)ccc3OC2CO)ccc1O (configuration not stated) [Silibinin] | > 10 | > 10 | > 10 | > 10 | > 10 | > 10 | > 10 | > 10 | > 10 | > 10 | > 10 | > 10 | > 10 | > 10
C=C1C(=O)O[C@H](CCCCCCCC)[C@H]1C(=O)O [C75] | > 10 | > 10 | > 10 | > 10 | > 10 | > 10 | > 10 | > 10 | > 10 | > 10 | > 10 | > 10 | > 10 | > 10
O[C@H]1[C@H](O)[C@@H](O)CN2CC[C@H](O)[C@H]12 [Castanospermine] | > 10 | > 10 | > 10 | > 10 | > 10 | > 10 | > 10 | > 10 | > 10 | > 10 | > 10 | > 10 | > 10 | > 10
CC(=O)N1CCN(c2ccc(OC[C@@H]3CO[C@@](Cn4ccnc4)(c4ccc(Cl)cc4Cl)O3)cc2)CC1 (racemic) [Ketoconazole] | > 10 | > 10 | > 10 | > 10 | 8.91 | > 10 | > 10 | > 10 | > 10 | > 10 | > 10 | > 10 | 8.35 | > 10
CCCCCCCCCCCCCCOc1ccc(C(=O)O)o1 [TOFA] | > 10 | > 10 | > 10 | > 10 | 8.33 | > 10 | > 10 | > 10 | > 10 | > 10 | > 10 | > 10 | > 10 | > 10
